Test results reported in patent publication US11071743B1, “Effective, non-toxic treatments for brain cancer” (priority 2015, dated 2021).

Experiments:
[1] = system: lipid-encapsulated viruses; settings: in vitro; cited from earlier work
[2] = system: glioblastoma multiforme; assay: Example Two: treatment of a patient; format: in vivo, human; settings: dose escalated to 22 mg/kg
Procedure: A person living in Argentina was diagnosed with glioblastoma multiforme in January of 2014 and was immediately treated with surgery, chemotherapy, and radiation.
Shortly thereafter, near the middle of October, the patient began receiving the following regimen, alfacalcidol not being available: valganciclovir, 450 mg twice a day melatonin, 12 mg twice a day
BHT, 700 mg in the morning plus 350 mg at night resveratrol, 175 mg twice a day lycopene, 15 mg once a day
Honokiol, 250 mg twice a day metformin, 500 mg once a day, and vitamin D3, 2800 IU at night.
About two weeks later, bio-absorbable curcumin (from the Life Extension Foundation, described above), 400 mg twice a day, was added to the regimen, and circa November 4th, alfacalcidol was added to the regimen (3 micrograms in the morning).
The supply of alfacalcidol ran out at about that time. At the same time, sugar and other carbohydrate intake was restricted. In February, the dexamethasone dose was cut to 1 and 2 mg in the morning and evening, respectively. […] Alfacalcidol was resumed in April, at a double dose (3 micrograms twice a day) to compensate in part for the previous lapse, at which time the dexamethasone dose was cut to 1 mg twice a day. The tumor continued to show no progression in May, and the alfacalcidol dose was reduced to 2 micrograms twice a day in June, when the metformin dose was raised to […] in the morning. […]

[3] = normal brains; cited from earlier work
[4] = system: glioblastoma; settings: in lab dishes; cited from earlier work

In the case of `Cc1cc(C(C)(C)C)c(O)c(C(C)(C)C)c1` [BHT, butylated hydroxytoluene], the “killing of lipid-encapsulated viruses” value [1] is given as “kill lipid-encapsulated viruses”.
With `O=C(O)C(Cl)Cl` [DCA, dichloroacetate] the “side effect of DCA” value [2] was “numbness was experienced”.
For `Oc1ccc(C=Cc2cc(O)cc(O)c2)cc1` [Resveratrol], the blood-brain barrier penetration [3] is given as “poorly if at all” and the anti-glioblastoma effects [4] is given as “powerful anti-glioblastoma effects”.
